In BindingDB's records for doi:10.1021/jm0494669 (Italy. Vinc, 2004):

Molecular target: RNA-directed RNA polymerase (Hepacivirus hominis, UniProt Q8JXU8)
Assay: Inhibitory concentration required to inhibit HCV RNA dependent RNA polymerase Nonstructural protein 5B is determined

Sequence of RNA-directed RNA polymerase (Q8JXU8 whole entry): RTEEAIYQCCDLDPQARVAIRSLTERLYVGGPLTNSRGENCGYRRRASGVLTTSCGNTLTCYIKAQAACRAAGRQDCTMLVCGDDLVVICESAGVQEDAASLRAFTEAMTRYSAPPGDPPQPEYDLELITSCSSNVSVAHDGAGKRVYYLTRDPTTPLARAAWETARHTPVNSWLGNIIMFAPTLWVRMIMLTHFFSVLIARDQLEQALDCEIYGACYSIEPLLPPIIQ

**Q.** O=C(O)C(=O)CC(=O)c1ccccc1 was tested. Which IC50 did it give?
**A.** 5.7 µM
